Patent publication US9174984B2, “Chemical compounds” (GlaxoSmithKline Intellectual Property (No. 2) Limited, priority 2011, dated 2015)
Values joined by “and” are separate entries in the source; they are usually repeats but may differ in a detail not shown here. Equal values may be shown once. Read-outs that look alike come from different tables or passages of the source. Values belong to the molecule of their own block, whether it stands above or below them.

Experiments:
Human full-length DNMT1 = molecular target: T1, Human full-length DNMT1 (Homo sapiens, UniProt P26358); test: DNMT inhibition assay (3H-SAM filter-binding) against DNMT1; assay type: biochemical
T1 construct: Human full-length DNMT1 enzyme purchased from BPS Biosciences; purchased BPS Biosciences

Human DNMT3b/3L = molecular target: T2, Human DNMT3b/3L (Homo sapiens, UniProt Q9UBC3); test: DNMT inhibition assay (3H-SAM filter-binding) against DNMT3b/3L; assay type: biochemical; details: read-out: IC50 against DNMT 3b/3L
T2 construct: truncated 3b (catalytic domain)
Description: DNMT Assays Used for Examples 1-114
Human DNMT3b/3L was coexpressed using truncated 3b (catalytic domain) and 3L (DNA binding domain) at GSK. Human full-length DNMT1 enzyme purchased from BPS Biosciences. Poly(dIdC) DNA (Sigma) was used at 0.002 mg/mL. Tritiated SAM (Perkin Elmer) was used at 500 nM. DNA, DNMT enzyme, and inhibitors were mixed with assay buffer (20 mM Tris pH8, 5% glycerol, 1 mM EDTA, 100 μg/mL BSA, 1 mM DTT, 50 mM NaCl) and pre-incubated without SAM for 30 min. H3 SAM was then added to initiate the methylation reaction which continues at 37° C. for 1 h. Reaction mixture was then transferred to a filter plate (Millipore Multiscreen HTS DE), then washed with 50 mM H2PO4 and 95% Ethanol. Scintillation counts were measured on the Perkin Elmer Microbeta scintillation counter.
DNMT Assays Used for Examples 115-120
DNMT enzymes were produced by GlaxoSmithKline. Human DNMT3b/3L was coexpressed using truncated 3b (catalytic domain) and 3L (DNA binding domain). DNMT1 was human, full-length protein. 3H-SAM was purchased from Perkin Elmer. Custon DNA oligonucleotide substrates were purchased from Integrated DNA technologies.
28-mer DNA Oligonucleotide Duplex (for DNMT3b/3L)
DNMT enzyme was preincubated with compound for 1 hr at RT, after which SAM and DNA were added to initiate the methylation reaction. The methylation reaction was quenched after 20 min upon the addition of >100 fold excess non-radioactive SAM. The quenched reaction mixture (80%) was transferred to a DEAE filter binding plate (Millipore Multiscreen HTS DE), washed with 3 volumes of 50 mM phosphate buffer and dried. Scintillation cocktail (MicroScint-20) was added to the plate and radioactivity (3H-DNA) was measured using a Perkin Elmer TopCount scintillation counter.
Final reagent concentrations (prior to quench) consisted of the following:
DNMT3b/3L (10 nM), 200 nM DNA, 200 nM 3H-SAM in 20 mM Tris (pH 8), 1 mM DTT, 1 mM EDTA, 25 mM NaCl, 1 mM CHAPS and 2% DMSO.

[1] = at least one experimental run or average of several runs, Examples 1-114 and 115-120 use different protocols

T1 sequence (P26358 whole entry): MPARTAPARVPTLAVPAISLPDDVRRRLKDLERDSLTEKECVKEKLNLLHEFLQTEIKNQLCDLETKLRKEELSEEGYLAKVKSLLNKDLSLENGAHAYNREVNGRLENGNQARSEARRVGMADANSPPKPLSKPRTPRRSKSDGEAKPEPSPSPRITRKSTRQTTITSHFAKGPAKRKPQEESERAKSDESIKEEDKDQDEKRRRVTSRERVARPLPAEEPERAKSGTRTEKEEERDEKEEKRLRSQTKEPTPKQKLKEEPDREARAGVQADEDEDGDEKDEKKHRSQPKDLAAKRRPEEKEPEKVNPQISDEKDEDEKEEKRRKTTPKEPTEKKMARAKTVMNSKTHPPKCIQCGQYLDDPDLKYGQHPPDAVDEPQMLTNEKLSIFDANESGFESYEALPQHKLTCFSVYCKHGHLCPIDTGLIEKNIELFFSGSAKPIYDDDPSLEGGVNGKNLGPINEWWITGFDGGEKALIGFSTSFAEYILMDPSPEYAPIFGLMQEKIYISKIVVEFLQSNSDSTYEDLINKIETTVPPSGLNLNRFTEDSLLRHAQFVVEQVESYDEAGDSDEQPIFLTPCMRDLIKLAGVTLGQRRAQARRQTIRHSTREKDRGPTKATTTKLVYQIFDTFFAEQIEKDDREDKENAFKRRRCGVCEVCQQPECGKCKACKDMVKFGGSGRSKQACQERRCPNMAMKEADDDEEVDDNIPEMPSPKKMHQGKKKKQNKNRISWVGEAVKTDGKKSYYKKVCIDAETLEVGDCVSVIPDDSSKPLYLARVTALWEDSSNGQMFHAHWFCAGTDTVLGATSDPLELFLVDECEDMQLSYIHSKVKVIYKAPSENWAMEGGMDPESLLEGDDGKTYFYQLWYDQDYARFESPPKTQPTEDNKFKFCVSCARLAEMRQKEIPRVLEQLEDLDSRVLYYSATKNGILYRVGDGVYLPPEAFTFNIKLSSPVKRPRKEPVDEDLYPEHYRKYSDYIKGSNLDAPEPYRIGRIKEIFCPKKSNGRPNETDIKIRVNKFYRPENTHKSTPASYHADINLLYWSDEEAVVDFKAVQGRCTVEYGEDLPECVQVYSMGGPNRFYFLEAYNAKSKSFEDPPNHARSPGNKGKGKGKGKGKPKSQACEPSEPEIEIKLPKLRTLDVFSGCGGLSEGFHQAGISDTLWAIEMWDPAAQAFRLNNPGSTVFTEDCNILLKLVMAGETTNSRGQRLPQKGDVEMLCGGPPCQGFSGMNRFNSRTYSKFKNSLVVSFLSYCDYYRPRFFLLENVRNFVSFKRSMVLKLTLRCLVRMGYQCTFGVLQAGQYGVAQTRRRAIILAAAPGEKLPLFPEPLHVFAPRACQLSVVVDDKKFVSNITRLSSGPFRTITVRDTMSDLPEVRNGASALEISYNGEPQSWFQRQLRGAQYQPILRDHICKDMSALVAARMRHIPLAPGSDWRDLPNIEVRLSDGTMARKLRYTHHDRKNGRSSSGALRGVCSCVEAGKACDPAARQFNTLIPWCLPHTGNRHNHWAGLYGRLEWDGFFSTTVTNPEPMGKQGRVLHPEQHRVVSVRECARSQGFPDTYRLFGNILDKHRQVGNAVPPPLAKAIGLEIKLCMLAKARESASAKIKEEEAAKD

Structure (SMILES): Nc1ccccc1CNC(=S)NCc1ccnc2[nH]ccc12 [Example 26, 1-((1H-pyrrolo[2,3-b]pyridin-4-yl)methyl)-3-(2-aminobenzyl)thiourea]
IC50 (Human full-length DNMT1; [1]): 19.1 to 300 µM

Structure (SMILES): C=CC(=O)Nc1ccc([N+](=O)[O-])cc1CNC(=S)NCc1ccnc2[nH]ccc12 [Example 110, N-(2-((3-((1H-Pyrrolo[2,3-b]pyridin-4-yl)methyl)thioureido)methyl)-4-nitrophenyl)acrylamide]
IC50 (Human full-length DNMT1; [1]): 19.1 to 300 µM

Structure (SMILES): C=CC(=O)Nc1cc(CNC(=S)NCc2ccnc3[nH]ccc23)cc(C(F)(F)F)c1 [Example 35, N-(3-((3-((1H-pyrrolo[2,3-b]pyridin-4-yl)methyl)thioureido)methyl)-5-(trifluoromethyl)phenyl)acrylamide]
IC50 (Human full-length DNMT1; [1]): 19.1 to 300 µM
IC50 (Human DNMT3b/3L; [1]): ≤ 20 µM

Structure (SMILES): S=C(NCc1ccccc1C1CCCNC1)NCc1ccnc2[nH]ccc12 (stereo not drawn) [Example 116, 1-((1H-pyrrolo[2,3-b]pyridin-4-yl)methyl)-3-(2-(piperidin-3-yl)benzyl)thiourea]
IC50 (Human full-length DNMT1; [1]): ≤ 100 µM
IC50 (Human DNMT3b/3L; [1]): ≤ 10 µM

Structure (SMILES): O=C(C#Cc1ccc2c(c1)OCO2)NCCNC(=S)NCc1ccnc2[nH]ccc12 [Example 93, N-(2-(3-((1H-pyrrolo[2,3-b]pyridin-4-yl)methyl)thioureido)ethyl)-3-(benzo[d][1,3]dioxol-5-yl)propiolamide]
IC50 (Human full-length DNMT1; [1]): 19.1 to 300 µM and ≤ 100 µM

Structure (SMILES): Nc1ccc([N+](=O)[O-])cc1CNC(=S)NCc1ccnc2[nH]ccc12 [Example 30, 1-((1H-pyrrolo[2,3-b]pyridin-4-yl)methyl)-3-(2-amino-5-nitrobenzyl)thiourea]
IC50 (Human full-length DNMT1; [1]): 19.1 to 300 µM and ≤ 100 µM

Structure (SMILES): COCC#CC(=O)Nc1cccc(CNC(=S)NCc2ccnc3[nH]ccc23)c1 [Example 41, N-(3-((3-((1H-pyrrolo[2,3-b]pyridin-4-yl)methyl)thioureido)methyl)phenyl)-4-methoxybut-2-ynamide]
IC50 (Human full-length DNMT1; read-out: IC50 against DNMT 1): 19.1 to 300 µM and ≤ 200 µM
IC50 (Human DNMT3b/3L): ≤ 1 µM

Structure (SMILES): COc1ccc(C#CC(=O)NCCNC(=S)NCc2ccnc3[nH]ccc23)cc1OC [Example 92, N-(2-(3-((1H-pyrrolo[2,3-b]pyridin-4-yl)methyl)thioureido)ethyl)-3-(3,4-dimethoxyphenyl)propiolamide]
IC50 (Human full-length DNMT1; [1]): 19.1 to 300 µM and ≤ 100 µM

Structure (SMILES): O=C(C#Cc1ccccc1)NCc1ccccc1CNS(=O)(=O)NCc1ccnc2[nH]ccc12 [Example 55, N-(2-(((N-((1H-pyrrolo[2,3-b]pyridin-4-yl)methyl)sulfamoyl)amino)methyl)benzyl)-3-phenylpropiolamide]
IC50 (Human DNMT3b/3L): ≤ 1 µM

Structure (SMILES): NC(CCCCNC(=S)NCc1ccnc2[nH]ccc12)C(=O)O (stereo not drawn) [Example 46, 6-(3-((1H-pyrrolo[2,3-b]pyridin-4-yl)methyl)thioureido)-2-aminohexanoic acid]
IC50 (Human full-length DNMT1; [1]): 19.1 to 300 µM

Structure (SMILES): NCC(=O)Nc1ccccc1CNC(=S)NCc1ccnc2[nH]ccc12 [Example 114, N-(2-((3-((1H-Pyrrolo[2,3-b]pyridin-4-yl)methyl)thioureido)methyl)phenyl)-2-aminoacetamide]
IC50 (Human full-length DNMT1; [1]): 19.1 to 300 µM and ≤ 200 µM

Structure (SMILES): O=C(NCc1ccnc2[nH]ccc12)NC1CCN(C(=O)C#Cc2ccccc2)C1 (stereo not drawn) [Example 58, 1-((1H-pyrrolo[2,3-b]pyridin-4-yl)methyl)-3-(1-(3-phenylpropioloyl)pyrrolidin-3-yl)urea]
IC50 (Human DNMT3b/3L): ≤ 1 µM

Results, then the molecule that gave them:

IC50 (Human full-length DNMT1; [1]): 19.1 to 300 µM and ≤ 200 µM
Structure (SMILES): O=C(C#Cc1ccc(Cl)cc1)NCCNC(=S)NCc1ccnc2[nH]ccc12 [Example 89, N-(2-(3-((1H-pyrrolo[2,3-b]pyridin-4-yl)methyl)thioureido)ethyl)-3-(4-chlorophenyl)propiolamide]

IC50 (Human full-length DNMT1; [1]): 19.1 to 300 µM and 75 µM and ≤ 100 µM
Structure (SMILES): O=C(C#Cc1cccc(F)c1)NCCNC(=S)NCc1ccnc2[nH]ccc12 [Example 86, N-(2-(3-((1H-pyrrolo[2,3-b]pyridin-4-yl)methyl)thioureido)ethyl)-3-(3-fluorophenyl)propiolamide]

IC50 (Human full-length DNMT1; [1]): 19.1 to 300 µM and ≤ 100 µM
IC50 (Human DNMT3b/3L; [1]): ≤ 1 µM
Structure (SMILES): O=C(C#Cc1ccc([N+](=O)[O-])cc1)NCCNC(=S)NCc1ccnc2[nH]ccc12 [Example 87, N-(2-(3-((1H-pyrrolo[2,3-b]pyridin-4-yl)methyl)thioureido)ethyl)-3-(4-nitrophenyl)propiolamide]

IC50 (Human full-length DNMT1; [1]): 19.1 to 300 µM and ≤ 200 µM
Structure (SMILES): O=C(C#Cc1ccc(F)cc1)NCCNC(=S)NCc1ccnc2[nH]ccc12 [Example 85, N-(2-(3-((1H-pyrrolo[2,3-b]pyridin-4-yl)methyl)thioureido)ethyl)-3-(4-fluorophenyl)propiolamide]

IC50 (Human full-length DNMT1; [1]): 19.1 to 300 µM
IC50 (Human DNMT3b/3L; [1]): ≤ 20 µM
Structure (SMILES): CC#CC(=O)Nc1ccccc1CNS(=O)(=O)NCc1ccnc2[nH]ccc12 [Example 42, N-(2-(((N-((1H-pyrrolo[2,3-b]pyridin-4-yl)methyl)sulfamoyl)amino)methyl)phenyl)but-2-ynamide]

IC50 (Human full-length DNMT1; [1]): 19.1 to 300 µM
Structure (SMILES): Cc1ccc(C#CC(=O)NCCNC(=S)NCc2ccnc3[nH]ccc23)cc1 [Example 88, N-(2-(3-((1H-pyrrolo[2,3-b]pyridin-4-yl)methyl)thioureido)ethyl)-3-(p-tolyl)propiolamide]

IC50 (Human DNMT3b/3L; [1]): ≤ 1 µM
Structure (SMILES): O=C(C#Cc1ccccc1)NCCCNS(=O)(=O)NCc1ccnc2[nH]ccc12 [Example 49, N-(3-((N-((1H-pyrrolo[2,3-b]pyridin-4-yl)methyl)sulfamoyl)amino)propyl)-3-phenylpropiolamide]
